Source: patent US12281304B2, “Compositions and methods for treating and preventing muscular disorders and dystrophies, steroid side effects, and inflammation” (Children's National Medical Center, priority 2018, dated 2025)

Test system: miRNAs in diaphragm muscle of mdx mice
Experiment: TaqMan low-density array (TLDA) miRNA profiling of diaphragm, discovery set (prophylactic mdx trial)
Type: in vivo, mouse
Conditions: mdx diaphragm, vs untreated mdx; Pred 5 mg/kg, Vam 15 mg/kg
Source text: Archival muscle samples (diaphragm) from two separate preclinical studies were obtained, with each trial showing a significant benefit from both prednisolone and vamorolone drug treatments (23). Prednisolone was used because it is the active form of prednisone, the current DMD standard of care. The first, “discovery set” of diaphragm muscles was from a prophylactic trial design where 2-week old (postnatal day 15) mdx or wild type control mice received oral dosing for 6 weeks with vehicle (cherry syrup), prednisolone (5 mg/kg), or vamorolone (15 mg/kg) as previously reported (23). The second, “validation set” of diaphragm muscles was from an extended trial in older mice where mdx or wild type mice were subjected to treadmill running to unmask mild phenotypes. Mice in this validation set were treated with either vehicle, prednisolone (5 mg/kg) or vamorolone (45 mg/kg) for four months beginning at two months of age (23). At the endpoint of each trial, diaphragm muscles were harvested and frozen in liquid nitrogen-cooled isopentane.
We extracted total RNA from 5 diaphragm muscles per treatment group in the discovery set of samples from 8-week old mice. RNA was extracted using a modified TRIzol protocol with isopropanol precipitation at −20° C. overnight. This RNA was reverse transcribed to cDNA using a High Capacity cDNA Reverse Transcription Kit with RNase Inhibitor (ThermoFisher; Carlsbad, Calif.), with miRNA-specific Megaplex RT Primers, Rodent Pools Set version 3.0 (ThermoFisher; Carlsbad, Calif.). Levels of each of the miRNAs were profiled in the discovery set using TAQMAN Array Rodent MiRNA A+B Cards Set v3.0 (ThermoFisher; Carlsbad, Calif.).
In the discovery set experiments, levels of each miRNA were quantified in TaqMan low-density arrays using ThermoFisher Cloud software with the Relative Quantification Application (ThermoFisher; Carlsbad, Calif.) tool. Data was analyzed by ANOVA with post-hoc comparison of each group to the mdx vehicle-treated group. […] A P-value of P≤0.05 was set as the significance threshold, without adjustment for multiple comparisons. To reduce false-positive discovery in this setting, an evidence-based approach was used to identify efficacy associated miRNAs where 1) results from the multiple groups were cross-referenced, and 2) all candidate miRNAs identified in this discovery set were then assayed in a separate validation set of mice. For the validation set experiments, levels of each individual miRNA were assayed in samples from a second, independent preclinical trial in adult mdx mice. Data from individual TaqMan Assays was quantified using QuantStudio Real-Time PCR version 1.3 software (Applied Biosystems; Foster City, Calif.). The levels of all miRNAs were normalized to the geometric mean of multiple control genes (60, 70). Comparison of groups was made by ANOVA with Holm-Sidak post-hoc test comparing each group to mdx vehicle.
To visualize behavior of miRNAs within individual mice for each group, heat map images were generated. Heat maps were generated using Rq values of TLDA array data exported from the Relative Quantification Application of the ThermoFisher Cloud software (ThermoFisher; Carlsbad, Calif.) tool. Heat maps of miRNA expression were produced using Hierarchical Clustering Explorer Version 3.5 (at www.cs.umd.edu/hcil/multi-cluster/) produced by the Human Computer Interaction Laboratory (University of Maryland; College Park, Md.).
To examine miRNA expression TaqMan low density qPCR array cards were used to profile approximately 750 miRNAs within diaphragm muscle from a discovery set of mice. Samples for this experiment came from a trial that utilized a prophylactic approach (23). Briefly, mdx mice undergo a stage of peak severity characterized by widespread inflammation and necrosis from approximately 3-8 weeks of age, followed by a recovery stage where mice show milder phenotypes (25). […]

## C[C@@H]1C[C@H]2[C@@H]3CCC4=CC(=O)C=C[C@]4(C)C3=CC[C@]2(C)[C@@]1(O)C(=O)CO [vamorolone]
  Rq mmu-miR-215-001200: 0.495
  Rq mmu-miR-218-000521: 0.759
  Rq mmu-miR-221-000524: 0.674
  Rq mmu-miR-222-002276: 0.733
  Rq mmu-miR-223-002295: 0.78
  Rq mmu-miR-296-5p-000527: 0.882
  Rq mmu-miR-301a-000528: 0.77
  Rq mmu-miR-301b-002600: 0.917
  Rq mmu-miR-322-001076: 0.785
  Rq mmu-miR-324-3p-002509: 0.748
  Rq mmu-miR-324-5p-000539: 0.946
  Rq mmu-miR-328-000543: 0.858
  Rq mmu-miR-335-3p-002185: 1.249
  Rq mmu-miR-335-5p-000546: 0.76
  Rq mmu-miR-337-3p-002532: 1.078
  Rq mmu-miR-338-3p-002252: 0.689
  Rq mmu-miR-339-5p-002257: 0.929
  Rq mmu-miR-340-3p-002259: 0.75
  Rq mmu-miR-340-5p-002258: 0.726
  Rq mmu-miR-342-3p-002260: 0.677
  Rq mmu-miR-342-5p-002527: 0.644
  Rq mmu-miR-345-5p-002528: 0.808
  Rq mmu-miR-350-002530: 0.797
  Rq mmu-miR-362-3p-002616: 0.902
  Rq mmu-miR-362-5p-002614: 1.469
  Rq mmu-miR-369-3p-000557: 0.963
  Rq mmu-miR-369-5p-001021: 1.023
  Rq mmu-miR-370-002275: 1.146
  Rq mmu-miR-376a#-002482: 0.985
  Rq mmu-miR-376a-001069: 0.991
  Rq mmu-miR-376b#-002451: 0.717
  Rq mmu-miR-376b-002452: 1.153
  Rq mmu-miR-376c-002450: 0.931
  Rq mmu-miR-379-001138: 0.987
  Rq mmu-miR-380-5p-002601: 1.243
  Rq mmu-miR-381-000571: 1.288
  Rq mmu-miR-382-000572: 1.081
  Rq mmu-miR-383-001767: 0.272
  Rq mmu-miR-384-5p-002602: 0.727
  Rq mmu-miR-409-3p-002332: 1.266
  Rq mmu-miR-410-001274: 1.158
  Rq mmu-miR-411-001610: 1.083
  Rq mmu-miR-431-001979: 1.358
  Rq mmu-miR-433-001028: 1.407
  Rq mmu-miR-434-5p-002581: 1.208
  Rq mmu-miR-450a-5p-002303: 0.862
  Rq mmu-miR-455-002455: 0.607
  Rq mmu-miR-467F-002886: 0.581
  Rq mmu-miR-467a-002587: 0.763
  Rq mmu-miR-467c-002517: 0.844
  Rq mmu-miR-483#-002560: 1.386
  Rq mmu-miR-486-001278: 0.988
  Rq mmu-miR-487b-001285: 1.133
  Rq mmu-miR-489-001302: 0.942
  Rq mmu-miR-491-001630: 0.842
  Rq mmu-miR-493-002519: 1.057
  Rq mmu-miR-494-002365: 0.988
  Rq mmu-miR-495-001663: 0.897
  Rq mmu-miR-497-001346: 0.652
  Rq mmu-miR-500-002606: 0.878
  Rq mmu-miR-501-3p-001651: 1.158
  Rq mmu-miR-503-002456: 1.115
  Rq mmu-miR-511-002549: 0.477
  Rq mmu-miR-532-3p-002355: 1.069
  Rq mmu-miR-532-5p-001518: 1.043
  Rq mmu-miR-540-3p-001310: 0.746
  Rq mmu-miR-541-002562: 1.043
  Rq mmu-miR-542-3p-001284: 0.82
  Rq mmu-miR-542-5p-002563: 1.044
  Rq mmu-miR-543-001298: 1.176
  Rq mmu-miR-543-002376: 0.918
  Rq mmu-miR-544-002550: 0.952
  Rq mmu-miR-574-3p-002349: 0.692
  Rq mmu-miR-652-002352: 0.636
  Rq mmu-miR-665-002607: 1.203
  Rq mmu-miR-669a-001683: 0.551
  Rq mmu-miR-673-3p-002449: 1.148
  Rq mmu-miR-673-001954: 1.475
  Rq mmu-miR-674#-001956: 0.765
  Rq mmu-miR-674-002021: 0.892
  Rq mmu-miR-675-3p-001941: 1.14
  Rq mmu-miR-682-001666: 0.675
  Rq mmu-miR-690-001677: 0.861
  Rq mmu-miR-706-001641: 0.664
  Rq mmu-miR-708-002341: 0.51
  Rq mmu-miR-720-001629: 0.957
  Rq mmu-miR-802-002029: 0.126
  Rq mmu-miR-805-002045: 1.128
  Rq mmu-miR-1274a-121150_mat: 1.244
  Rq mmu-miR-1941-3p-121130_mat: 1.459
  Rq mmu-miR-1943-121174_mat: 1.268
  Rq mmu-miR-1944-121189_mat: 1.023
  Rq mmu-miR-2146-241082_mat: 0.413
  Rq mmu-miR-30d-000420: 0.829
  Rq rno-miR-1-002064: 0.956
  Rq rno-miR-7#-001338: 0.799
  Rq rno-miR-7a#-002062: 0.887
  Rq rno-miR-20b-001326: 0.711
  Rq rno-miR-29c#-001818: 0.93
  Rq rno-miR-204#-002076: 0.813
  Rq rno-miR-224-000599: 0.837
  Rq rno-miR-345-3p-002061: 0.999
  Rq rno-miR-351-002063: 1.376
  Rq rno-miR-379#-002081: 1.014
  Rq rno-miR-381-001322: 1.013
  Rq rno-miR-489-001353: 0.844
  Rq rno-miR-664-001323: 0.771
